Laboratory results as given in patent US11548875B2, “Inhibitor compounds for male contraception” (University of Washington, priority 2018, dated 2023).

Legend:
ALDH1A1 = biological target: T1, ALDH1A1 (Homo sapiens, UniProt P00352); assay: Cell-based enzyme assay, retinoic acid production in ALDH1A1/H1299 cells
T1 sequence (P00352 1-501): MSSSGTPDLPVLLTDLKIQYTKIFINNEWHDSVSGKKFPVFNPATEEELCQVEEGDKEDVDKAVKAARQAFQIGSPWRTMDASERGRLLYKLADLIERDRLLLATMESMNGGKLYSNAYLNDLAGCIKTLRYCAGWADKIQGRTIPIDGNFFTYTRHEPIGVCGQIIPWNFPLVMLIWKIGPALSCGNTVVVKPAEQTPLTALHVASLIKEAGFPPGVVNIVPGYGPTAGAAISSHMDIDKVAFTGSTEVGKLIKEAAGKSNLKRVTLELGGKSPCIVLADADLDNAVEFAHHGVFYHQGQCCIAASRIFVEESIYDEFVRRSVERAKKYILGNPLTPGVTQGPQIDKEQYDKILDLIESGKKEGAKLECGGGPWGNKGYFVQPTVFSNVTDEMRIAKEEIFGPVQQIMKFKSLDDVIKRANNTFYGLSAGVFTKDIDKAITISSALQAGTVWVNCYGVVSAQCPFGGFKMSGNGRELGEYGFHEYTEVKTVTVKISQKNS
Outline: (§1)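 ALDH1A1- or ALDH1A2-stably transfected H1299 cells grown to confluence, then treated 20 h in serum-free RPMI-1640 with 2 μM all-trans-retinal plus varying inhibitor concentrations at 37 °C. Retinoic acid in cells and media quantified; inhibition from RA levels with vs without inhibitor.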

ALDH1A2 [1] = biological target: T2, ALDH1A2 (Homo sapiens, UniProt O94788); assay: Inhibitor screening using purified enzymes: ALDH1A2 activity, retinoic acid production by HPLC (5 uM initial screen, then IC50); type: biochemical; parameters: histidine-tag (C); made in house; host or cells: bacterial expression (pET28 vector, IPTG induction); conditions: purified enzyme
T2 sequence (O94788 1-518): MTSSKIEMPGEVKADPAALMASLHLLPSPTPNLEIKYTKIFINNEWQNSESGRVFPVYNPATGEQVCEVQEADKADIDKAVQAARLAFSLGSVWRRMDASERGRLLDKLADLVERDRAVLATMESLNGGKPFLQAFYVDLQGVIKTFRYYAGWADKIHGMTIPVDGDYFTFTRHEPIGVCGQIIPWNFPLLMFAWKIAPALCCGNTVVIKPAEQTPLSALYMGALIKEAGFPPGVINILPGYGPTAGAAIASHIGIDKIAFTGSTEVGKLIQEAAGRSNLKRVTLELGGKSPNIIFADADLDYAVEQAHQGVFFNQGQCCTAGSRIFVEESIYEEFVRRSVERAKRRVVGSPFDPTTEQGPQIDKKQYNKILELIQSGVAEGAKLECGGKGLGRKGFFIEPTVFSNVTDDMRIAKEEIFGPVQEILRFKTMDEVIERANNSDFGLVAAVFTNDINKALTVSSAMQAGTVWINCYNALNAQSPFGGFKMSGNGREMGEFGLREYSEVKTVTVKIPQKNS
Outline: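 Purified His-tagged human enzymes in 10 mM HEPES pH 8.0, 150 mM KCl, 2 mM EDTA with 2 mM NAD, all-trans-retinal substrate; retinoic acid quantified by HPLC. ALDH1A2 initial screen: 1 μg enzyme, 5 μM retinal, 5 μM inhibitor, 15 min, 37° C; IC50 runs: 0.5 μg enzyme, 0.5 μg retinal, 5 min, 37° C.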

ALDH1A2 [2] = biological target: T2, ALDH1A2; assay: Cell-based enzyme assay, retinoic acid production in ALDH1A2/H1299 cells
Outline: as §1

Row | SMILES | EC50 (ALDH1A1) | IC50 (ALDH1A2 [1]) | EC50 (ALDH1A2 [2])
1 | O=C(c1cccc(Cl)c1)N1CCN(c2ccc([N+](=O)[O-])c(N3CCCC3)c2)CC1 [Compound 341, 3-Chlorophenyl-1-{4-[4-nitro-3-(pyrrolidin-1-yl)phenyl]piperazin-1-yl}methanone] | < 0.5 µM | 1.45 µM | 0.505 µM
2 | Cn1cccc1C(=O)N1CCN(c2ccc([N+](=O)[O-])c(N3CCCC3)c2)CC1 [Compound 343, [4-(4-Nitro-3-(pyrrolidin-1-yl)phenyl)piperazin-1-yl](1-methyl-1H-pyrrol-2-yl)methanone] | < 0.5 µM | 1.94 µM | < 0.5 µM
3 | O=C(c1ccc[nH]1)N1CCN(c2ccc([N+](=O)[O-])c(N3CCCC3)c2)CC1 [Compound 344, {4-[4-Nitro-3-(pyrrolidin-1-yl)phenyl]piperazin-1-yl}(1H-pyrrol-2-yl)methanone] | < 0.5 µM | 0.264 µM | < 0.5 µM
4 | COc1ccc(C(=O)N2CCN(c3ccc([N+](=O)[O-])c(N4CCCC4)c3)CC2)cc1 [Compound 345, 4-Methoxyphenyl-1-{4-[4-nitro-3-(pyrrolidin-1-yl)phenyl]piperazin-1-yl}methanone] | < 0.5 µM | 3.99 µM | 1.19 µM
5 | CN(C)c1ccc(C(=O)N2CCN(c3ccc([N+](=O)[O-])c(N4CCCC4)c3)CC2)cc1 [Compound 346, 4-Dimethylaminophenyl-1-{4-[4-nitro-3-(pyrrolidin-1-yl)phenyl]piperazin-1-yl}methanone] | < 0.5 µM | 5.69 µM | 1.42 µM

Other lines, results leading:

Row | EC50 (ALDH1A1) | IC50 (ALDH1A2 [1]) | EC50 (ALDH1A2 [2]) | SMILES
6 | 0.468 µM | 4.56 µM | 0.966 µM | O=C(c1ccc(Cl)cc1)N1CCN(c2ccc([N+](=O)[O-])c(N3CCCC3)c2)CC1 [Compound 342, 4-Chlorophenyl-1-{4-[4-nitro-3-(pyrrolidin-1-yl)phenyl]piperazin-1-yl}methanone]
7 | 0.33 µM | 0.042 µM | 0.35 µM | CC(=O)n1cccc1C(=O)N1CCN(c2ccc([N+](=O)[O-])c(N3CCCC3)c2)CC1 [Compound 347, {4-[4-Nitro-3-(pyrrolidin-1-yl)phenyl]piperazin-1-yl}(1-acetyl-pyrrol-2yl)methanone]
8 | 0.244 µM | 2.3 µM | > 5 µM | Cn1cccc1C(=O)N1CCN(c2ccc(NC(=O)C(Cl)Cl)c(N3CCCC3)c2)CC1 [Compound 367, 1-[4-(4-N-Dichloroacetyl-3-(pyrrolidin-1-yl)phenyl]piperazin-1-yl](1-methyl-1H-pyrrol-2-yl)methanone]
9 | 0.069 µM | 3.6 µM | 0.7 µM | Cn1cccc1C(=O)N1CCN(c2ccc(NC(=O)CCl)c(N3CCCC3)c2)CC1 [Compound 372, 1-[4-(4-N-Chloroacetyl-3-(pyrrolidin-1-yl)phenyl]piperazin-1-yl](1-methyl-1H-pyrrol-2-yl)methanone]
10 | 0.37 µM | 2.13 µM | 0.88 µM | Cn1cccc1C(=O)N1CCN(c2ccc(-c3ccc([N+](=O)[O-])cc3)c(N3CCCCC3)c2)CC1 [Compound 373]
